Measured values reported in patent US12162879B2, “Pyridopyrimidine derivative, preparation method therefor and medical use thereof” (Jiangsu Hengrui Medicine Co., Ltd., priority 2018, dated 2024).
pEC50: −log10 of the molar value.

Assays:
Type in all cases: cell-based
human TLR7 = human TLR7 (Homo sapiens (Human), UniProt Q9NYK1); assay: Agonist activity on human TLR7 in HEK-Blue hTLR7 cells; conditions: 16 hours, OD 620 nm
Protocol: (§1) • 1. DMEM(Gibco, 10564-029); • 2. Fetal bovine serum (GIBCO, 10099); • 3. Trypan blue solution (Sigma, T8154-100 ML); • 4. Flexstation 3 multi-function microplate reader (Molecular Devices); • 5. HEK-Blue™ hTLR8 cell line (InvivoGen, hkb-hTLR8), or HEK-Blue™ hTLR7 cell line (InvivoGen, hkb-hTLR7); • 6. HEK-Blue detection reagent (InvivoGen, hb-det3); and • 7. Phosphate buffer solution (PBS) pH 7.4 (Shanghai Basalmedia Technologies Co., Ltd., B320). II. Experimental Procedures a. Determination of Agonist Activity on Human TLR8
(§2) A bag of HEK-Blue detection dry powder was dissolved in 50 ml of water free of endotoxin, and the solution was then placed in an incubator at 37° C. for 10 minutes followed by sterile filtration to prepare a HEK-Blue detection medium. The compound was firstly formulated into a 20 mM stock solution, then diluted with pure DMSO to a maximum concentration of 6×10^6 nM, and a total of 10 points were obtained by a 3-fold gradient dilution. The above formulated compound was firstly diluted 20-fold with the medium, then 20 μl of the diluted compound was added to each well.
(§3) The supernate was removed from the HEK-Blue™ hTLR7 cells, to which 2-5 ml of pre-warmed PBS was then added. The cells were placed in an incubator for 1-2 minutes, gently pipetted, and counted by trypan blue staining. The cells were re-suspended in the HEK-Blue detection medium to adjust the concentration to 2.2×10^5 cells/ml. 180 μl of cells was added to the above 96-well plate comprising 20 μl of the compound, and incubated at 37° C. for 16 hours.
(§4) The corresponding OD values were obtained by a microplate reader at a wavelength of 620 nm, and the EC50 values of the compounds were calculated by Graphpad Prism.

[1] = tested on: peripheral blood mononuclear cells (PBMC); assay: Stimulation of IFNγ secretion from PBMC; conditions: minimum effective concentration, human PBMC, 24 hours
Protocol: (§5) The stimulating effect of the compounds of the present invention on the ability of secretion of IL12 and IFN γ from PBMC was determined by the following experimental method.
(§6) • 1. RMPI 1640 (Invitrogen, 11875); • 2. FBS (Gibco, 10099-141); • 3. Ficoll-Paque PREMIUM (GE, 17-5442-02); • 4. Trypan blue solution (Sigma, T8154-100 ML); • 5. SepMate™-50 (Stemcell, 15460); • 6. Bright-LineIM blood cell counter (Sigma, Z359629-1EA); • 7. 96-well cell culture plate (Corning, 3599); • 8. 96-well v-bottom plate (Corning, 3894); • 9. Human IL-12 ELISA kit (Neobioscience Technology Co., EHC152.96); • 10. Human IFN γ kit (cisbio, 62HIFNGPEG); and • 11. PHERAStar multi-function microplate reader (BMG, PHERAStar). II. Experimental Procedures
(§7) The compound was diluted with pure DMSO to a maximum concentration of 5 mM, and a total of 9 points were obtained by a 4-fold gradient dilution. 4 μl of the compound solution was then added to 196 μl of RMPI 1640 medium containing 10% FBS and mixed well. 50 μl of the mixture was taken and added to a 96-well cell culture plate.
(§8) All reagents were equilibrated to room temperature. 60 ml of blood from a healthy human and the same volume of PBS (containing 2% FBS) were added to a 250 ml culture flask, gently pipetted, mixed well and diluted. 15 ml of lymphocyte separation solution Ficoll-Paque PREMIUM was added to a 50 ml PBMC centrifuge tube SepMate™-50, followed by the addition of 30 ml of the above diluted blood. The mixture was centrifuged at 1200 g for 10 minutes at room temperature. The supernatant was taken and then centrifuged at 300 g for 8 minutes. The cells were re-suspended in the RMPI 1640 medium containing 10% FBS and counted, and the number of PBMCs was adjusted to 3.33×10^6 cells/ml. 150 μl of the cell solution was added to the plate containing the compounds, and incubated in an incubator at 37° C., 5.0% CO2 for 24 hours. The cell culture plate was placed in a centrifuge, and centrifuged at 1200 rpm for 10 minutes at room temperature. 150 μl of the supernatant was taken from each well.
The reagents in the Human IFN γ test kit were equilibrated to room temperature. The standard and detection antibody were prepared according to the kit's instruction under dark conditions. 16 μl of the supernatant obtained by centrifugation was added to each well, and 4 μl of freshly prepared mixed detection antibody was added to each well. The solution was mixed well by shaking, and incubated overnight in the dark at room temperature. The plate was read by the PHERAStar multi-function microplate reader.
(§9) The concentration of the compound that can stimulate PBMC to produce […] that is 3 times higher than the average value of the group without the compound (SD of the group without the compound) was defined as the minimum effective concentration (MEC) value of the compound.

[2] = tested on: peripheral blood mononuclear cells (PBMC); assay: Stimulation of IL12 secretion from PBMC (ELISA); conditions: minimum effective concentration, human PBMC, 24 hours
Protocol: as §5, §6, §7, §8
The reagents in the Human IL-12 ELISA kit were equilibrated to room temperature. According to the kit's instruction, the highest concentration of the standard is 2000 pg/ml, and a total of 8 points were obtained by a 2-fold gradient dilution. The sample to be tested was diluted 20 folds. The solution was then added to a pre-coated plate at 100 μl/well. The plate was incubated at 37° C. for 90 minutes and rinsed. The […] was added at 100 μl/well, and the plate was incubated at 37° C. for 60 minutes and rinsed. HRP binding enzyme was added at 100 μl/well, and the plate was incubated at 37° C. for 30 minutes and rinsed. TMB was added, and the plate was incubated at room temperature for 5 minutes. Finally, the stop solution was added to stop the reaction, and the absorbance at 450 nm was read by the microplate reader.
as §9

human TLR8 = human TLR8 (Homo sapiens (Human), UniProt Q9NR97); assay: Agonist activity on human TLR8 in HEK-Blue hTLR8 stably transfected cells; conditions: 16 hours, OD 620 nm
Sequence of human TLR8 (Q9NR97 27-1041): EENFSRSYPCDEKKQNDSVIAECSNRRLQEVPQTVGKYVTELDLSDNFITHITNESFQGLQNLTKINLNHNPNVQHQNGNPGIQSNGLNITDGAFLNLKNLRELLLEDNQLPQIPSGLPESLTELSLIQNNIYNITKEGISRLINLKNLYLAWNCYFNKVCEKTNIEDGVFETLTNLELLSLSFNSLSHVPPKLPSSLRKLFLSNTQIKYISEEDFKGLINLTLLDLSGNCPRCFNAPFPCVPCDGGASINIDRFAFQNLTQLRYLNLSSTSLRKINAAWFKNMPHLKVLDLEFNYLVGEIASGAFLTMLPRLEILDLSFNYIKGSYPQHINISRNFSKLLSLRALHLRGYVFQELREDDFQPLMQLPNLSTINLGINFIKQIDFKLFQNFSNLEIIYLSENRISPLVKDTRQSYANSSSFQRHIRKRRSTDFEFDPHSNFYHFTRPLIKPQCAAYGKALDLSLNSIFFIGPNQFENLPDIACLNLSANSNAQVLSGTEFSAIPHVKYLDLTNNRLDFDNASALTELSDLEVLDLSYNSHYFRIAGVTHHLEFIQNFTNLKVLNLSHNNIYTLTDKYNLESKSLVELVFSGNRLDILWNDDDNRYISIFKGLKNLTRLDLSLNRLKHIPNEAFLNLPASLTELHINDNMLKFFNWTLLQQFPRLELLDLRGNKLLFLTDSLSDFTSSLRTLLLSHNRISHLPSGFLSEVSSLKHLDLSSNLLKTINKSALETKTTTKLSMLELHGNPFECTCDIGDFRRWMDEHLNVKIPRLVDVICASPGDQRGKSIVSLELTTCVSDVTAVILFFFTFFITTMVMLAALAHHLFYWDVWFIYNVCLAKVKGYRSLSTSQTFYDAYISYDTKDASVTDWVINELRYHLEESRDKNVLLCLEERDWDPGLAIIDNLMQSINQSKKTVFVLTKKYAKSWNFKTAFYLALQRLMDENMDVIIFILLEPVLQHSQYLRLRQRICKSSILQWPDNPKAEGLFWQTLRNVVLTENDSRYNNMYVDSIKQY
Protocol: The agonist effect of the compounds of the present invention on hTLR8 expressed by the HEK-Blue™ hTLR8 stably transfected cells was determined by the following experimental method.
as §1, §2
as §3, with “hTLR8” for “hTLR7”
as §4

Sequence of human TLR7 (Q9NYK1 27-1049): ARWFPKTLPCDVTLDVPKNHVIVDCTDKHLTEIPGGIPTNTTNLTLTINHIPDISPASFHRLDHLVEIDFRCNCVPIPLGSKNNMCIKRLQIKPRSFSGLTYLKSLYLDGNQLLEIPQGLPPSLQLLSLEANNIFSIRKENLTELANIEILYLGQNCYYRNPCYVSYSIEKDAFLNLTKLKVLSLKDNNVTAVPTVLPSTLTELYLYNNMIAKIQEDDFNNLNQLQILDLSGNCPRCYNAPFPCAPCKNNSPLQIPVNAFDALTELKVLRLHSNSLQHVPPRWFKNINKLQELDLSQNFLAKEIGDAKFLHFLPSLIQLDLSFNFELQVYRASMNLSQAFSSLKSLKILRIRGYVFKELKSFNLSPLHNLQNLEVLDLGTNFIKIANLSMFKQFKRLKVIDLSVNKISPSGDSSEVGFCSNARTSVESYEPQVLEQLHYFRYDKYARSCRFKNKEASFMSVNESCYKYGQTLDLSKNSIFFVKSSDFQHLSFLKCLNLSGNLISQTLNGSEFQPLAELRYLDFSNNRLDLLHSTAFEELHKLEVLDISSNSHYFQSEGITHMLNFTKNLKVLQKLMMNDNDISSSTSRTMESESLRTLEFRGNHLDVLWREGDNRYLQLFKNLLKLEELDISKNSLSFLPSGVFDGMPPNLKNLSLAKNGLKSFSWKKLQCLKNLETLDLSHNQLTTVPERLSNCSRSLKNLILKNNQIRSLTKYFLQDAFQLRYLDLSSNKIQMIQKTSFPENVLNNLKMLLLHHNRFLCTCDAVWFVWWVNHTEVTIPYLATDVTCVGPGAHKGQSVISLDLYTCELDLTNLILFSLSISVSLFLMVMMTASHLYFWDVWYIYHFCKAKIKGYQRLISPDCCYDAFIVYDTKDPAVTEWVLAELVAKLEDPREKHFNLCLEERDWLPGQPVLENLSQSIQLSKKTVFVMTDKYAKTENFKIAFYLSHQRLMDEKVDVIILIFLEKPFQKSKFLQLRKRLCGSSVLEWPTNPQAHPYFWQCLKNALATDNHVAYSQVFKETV

Row | pEC50 (human TLR7) | Emax (human TLR7) | pEC50 (human TLR8) | Emax (human TLR8) | SMILES | IFNγ MEC [1] | IL12 MEC [2]
1 | < 4.52 | 5% | 6.82 | 103% | CCCCC(C)(CO)Nc1nc(N)nc2cc(-c3ccc(CN4CCNCC4)nc3)cnc12 (centres unmarked) [Example 9, 2-((2-Amino-7-(6-(piperazin-1-ylmethyl)pyridin-3-yl)pyrido[3,2-d]pyrimidin-4-yl)amino)-2-methylhexan-1-ol] | 94 nM | 24 nM
2 |  |  | 6.89 | 97% | CCCCC(C)(CO)Nc1nc(N)nc2cc(-c3ccc(CN4CCCC4)nc3)cnc12 (centres unmarked) [Example 1, 2-((2-Amino-7-(6-(pyrrolidin-1-ylmethyl)pyridin-3-yl)pyrido[3,2-d]pyrimidin-4-yl)amino)-2-methylhexan-1-ol] |  | 
3 |  |  | 7.00 | 104% | CCCCC(C)(CO)Nc1nc(N)nc2cc(-c3ccc(C4CCN(C)CC4)nc3)cnc12 (centres unmarked) [Example 3, 2-((2-Amino-7-(6-(1-methylpiperidin-4-yl)pyridin-3-yl)pyrido[3,2-d]pyrimidin-4-yl)amino)-2-methylhexan-1-ol] | 27 nM | 15 nM
4 |  |  | 7.10 | 116% | CCCC[C@](C)(CO)Nc1nc(N)nc2cc(-c3cnc(CN4CCN(C)CC4)nc3)cnc12 [Example 7, (R)-2-((2-Amino-7-(2-((4-methylpiperazin-1-yl)methyl)pyrimidin-5-yl)pyrido[3,2-d]pyrimidin-4-yl)amino)-2-methylhexan-1-ol] |  | 
